Data reported in ChEMBL document CHEMBL4325825, “Medicinal chemistry of acridine and its analogues” (Medchemcomm, 2018).
Where a SMILES comes first, the peptide text is derived from it. The star is where a group is joined. X1 = CCN(CC)CCCCC(C)Nc1c2ccccc2nc2c(C(=O)NCCCO/N=C/C(=O)*)cccc12

Experiments:
Acetylcholinesterase [1] = target: Acetylcholinesterase (Homo sapiens, UniProt P22303); experiment: Inhibition of AChE (unknown origin)
Calf thymus DNA = experiment: Binding affinity to calf thymus DNA; assay type: nucleic-acid assay; details: Bos taurus
Cholinesterase = Cholinesterase (Homo sapiens, UniProt P06276); experiment: Inhibition of BuChE (unknown origin)
DNA = experiment: Binding affinity to DNA (unknown origin); assay type: nucleic-acid assay
Acetylcholinesterase [2] = target: T1, Acetylcholinesterase (Mus musculus, UniProt P21836); experiment: Inhibition of AChE in mouse brain; assay type: tissue-based
T1 sequence (P21836 whole entry): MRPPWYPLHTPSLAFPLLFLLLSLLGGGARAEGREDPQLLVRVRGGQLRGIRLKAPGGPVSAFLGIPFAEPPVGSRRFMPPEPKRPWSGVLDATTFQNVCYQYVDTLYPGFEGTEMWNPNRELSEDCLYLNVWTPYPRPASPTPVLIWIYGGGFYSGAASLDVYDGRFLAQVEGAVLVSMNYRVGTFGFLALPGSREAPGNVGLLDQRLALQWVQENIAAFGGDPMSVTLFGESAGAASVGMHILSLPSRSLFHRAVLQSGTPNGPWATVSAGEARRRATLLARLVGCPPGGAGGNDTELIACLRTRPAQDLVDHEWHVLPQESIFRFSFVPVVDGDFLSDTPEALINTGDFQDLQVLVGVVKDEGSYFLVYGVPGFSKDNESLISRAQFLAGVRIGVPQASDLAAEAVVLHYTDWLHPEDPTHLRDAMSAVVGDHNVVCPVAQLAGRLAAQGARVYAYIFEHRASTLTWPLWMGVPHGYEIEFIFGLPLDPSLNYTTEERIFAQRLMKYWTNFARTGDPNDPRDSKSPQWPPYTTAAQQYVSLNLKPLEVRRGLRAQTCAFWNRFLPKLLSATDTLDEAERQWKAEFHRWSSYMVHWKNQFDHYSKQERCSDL

[3] = target: Amyloid-beta precursor protein (Homo sapiens, UniProt P05067); experiment: Inhibition of amyloid beta (1 to 40) (unknown origin) self aggregation
Chain of Amyloid-beta precursor protein (P05067 whole entry): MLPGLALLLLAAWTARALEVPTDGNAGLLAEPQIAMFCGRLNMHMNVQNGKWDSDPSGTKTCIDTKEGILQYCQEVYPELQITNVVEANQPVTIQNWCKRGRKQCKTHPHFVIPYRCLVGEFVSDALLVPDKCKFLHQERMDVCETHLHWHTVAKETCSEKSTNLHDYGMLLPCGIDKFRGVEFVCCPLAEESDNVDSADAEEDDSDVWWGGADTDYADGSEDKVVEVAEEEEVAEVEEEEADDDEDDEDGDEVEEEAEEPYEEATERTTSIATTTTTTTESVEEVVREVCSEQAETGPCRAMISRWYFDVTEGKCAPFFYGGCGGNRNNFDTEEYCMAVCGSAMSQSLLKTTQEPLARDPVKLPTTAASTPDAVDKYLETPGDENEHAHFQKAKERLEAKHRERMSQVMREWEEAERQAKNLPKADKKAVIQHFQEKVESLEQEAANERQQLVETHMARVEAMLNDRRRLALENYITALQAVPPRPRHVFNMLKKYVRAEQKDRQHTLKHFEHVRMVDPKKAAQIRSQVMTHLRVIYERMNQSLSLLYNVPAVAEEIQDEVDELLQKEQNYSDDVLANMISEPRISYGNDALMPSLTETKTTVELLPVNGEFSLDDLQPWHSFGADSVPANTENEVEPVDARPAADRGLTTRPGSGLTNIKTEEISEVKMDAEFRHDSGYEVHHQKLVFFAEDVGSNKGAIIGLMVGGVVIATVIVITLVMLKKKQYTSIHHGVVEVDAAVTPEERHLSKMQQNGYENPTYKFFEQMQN

Chain of Acetylcholinesterase (Homo sapiens, UniProt P22303) (P22303 whole entry): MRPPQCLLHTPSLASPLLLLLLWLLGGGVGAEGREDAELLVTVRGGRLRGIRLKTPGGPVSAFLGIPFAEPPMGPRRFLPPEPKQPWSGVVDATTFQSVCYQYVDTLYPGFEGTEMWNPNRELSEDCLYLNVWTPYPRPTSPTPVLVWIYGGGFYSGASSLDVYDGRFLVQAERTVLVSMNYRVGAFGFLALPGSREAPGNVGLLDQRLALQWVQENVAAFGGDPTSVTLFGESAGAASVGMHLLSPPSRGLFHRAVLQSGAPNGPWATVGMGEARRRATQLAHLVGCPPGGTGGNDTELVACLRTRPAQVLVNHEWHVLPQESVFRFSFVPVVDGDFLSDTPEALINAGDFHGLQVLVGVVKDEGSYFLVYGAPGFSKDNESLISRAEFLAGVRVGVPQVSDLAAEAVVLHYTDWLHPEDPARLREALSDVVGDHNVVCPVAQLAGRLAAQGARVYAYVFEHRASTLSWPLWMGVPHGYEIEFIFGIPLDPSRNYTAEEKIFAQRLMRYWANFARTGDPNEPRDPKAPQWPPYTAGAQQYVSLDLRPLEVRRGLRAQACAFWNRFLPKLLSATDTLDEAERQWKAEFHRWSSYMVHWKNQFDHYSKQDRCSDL
Chain of Cholinesterase (P06276 whole entry): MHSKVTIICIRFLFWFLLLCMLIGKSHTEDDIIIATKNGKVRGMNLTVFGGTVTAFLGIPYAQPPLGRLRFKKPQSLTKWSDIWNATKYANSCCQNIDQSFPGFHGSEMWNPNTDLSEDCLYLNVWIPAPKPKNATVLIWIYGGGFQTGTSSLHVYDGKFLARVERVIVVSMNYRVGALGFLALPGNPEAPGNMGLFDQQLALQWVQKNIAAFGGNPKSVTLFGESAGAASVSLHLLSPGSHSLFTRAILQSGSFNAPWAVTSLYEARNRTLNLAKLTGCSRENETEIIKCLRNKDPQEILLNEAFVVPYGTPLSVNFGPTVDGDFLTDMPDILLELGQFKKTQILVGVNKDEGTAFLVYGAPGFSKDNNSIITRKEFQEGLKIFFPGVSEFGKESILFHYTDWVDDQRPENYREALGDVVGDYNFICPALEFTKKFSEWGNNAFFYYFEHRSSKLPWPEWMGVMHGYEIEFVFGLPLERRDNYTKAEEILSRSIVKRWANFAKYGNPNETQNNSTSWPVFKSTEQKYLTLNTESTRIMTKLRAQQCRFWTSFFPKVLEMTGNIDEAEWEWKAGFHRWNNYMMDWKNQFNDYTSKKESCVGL

`Cc1cc(C)c(S(=O)(=O)Nc2ccc(C3C4=C(CC(C)(C)CC4=O)N(c4ccc(Br)cc4)C4=C3C(=O)CC(C)(C)C4)cc2)c(C)c1` showed an IC50 (Acetylcholinesterase [1]) of 140 nM.
Work on `COc1cc2nc3cc([N+](=O)[O-])ccc3c(NCCCNCCCNCCn3cnc4c(N)ncnc43)c2cc1OC` yielded a K (Calf thymus DNA) of 10000 to 1e+06 M⁻¹.
Compound `O=C(NCCCCCNc1c2c(nc3ccccc13)CCCC2)c1c2ccccc2nc2ccccc12` has an IC50 (Cholinesterase) of 0.0017 nM and an IC50 (Acetylcholinesterase [1]) of 0.0076 nM.
`O=C(/C=C/c1ccc([N+](=O)[O-])cc1)NCCCCCCNc1c2c(nc3ccccc13)CCCC2` gave an IC50 (Cholinesterase) of 6.5 nM and an IC50 (Acetylcholinesterase [1]) of 2.7 nM.
Compound `CCOc1ccc2nc3cc(N)ccc3c(NCCCNCCCNCCn3cnc4c(N)ncnc43)c2c1` has a K (Calf thymus DNA) of 10000 to 1e+06 M⁻¹.
For `CCOc1ccc2nc3c(I)c(N)ccc3c(NCCCNCCCNCCn3cnc4c(N)ncnc43)c2c1`, the K (Calf thymus DNA) was 10000 to 1e+06 M⁻¹.
For `CCOC(=O)c1c(/N=C/c2c3ccccc3nc3ccccc23)sc2c1CCC2`, the K (DNA) was 1 ×10⁴ /M.
In the case of `Fc1ccc(N2CCN(c3c4ccccc4nc4c(Cl)cccc34)CC2)cc1`, the IC50 (Acetylcholinesterase [2]) is reported as 330 nM.
With `NC(=O)c1c(/N=C/c2c3ccccc3nc3ccccc23)sc2c1CCC2` the K (DNA) was 1 ×10⁴ /M.
In the case of `N#Cc1c(/N=C/c2c3ccccc3nc3ccccc23)sc2c1CCC2`, the K (DNA) is reported as 1 ×10⁴ /M.
Compound `COc1ccc2nc3cc(Cl)ccc3c(Nc3sc4c(c3C#N)CCC4)c2c1` has a K (DNA) of 1 ×10⁴ /M.
`CCN(CC)CCCCC(C)Nc1c2ccccc2nc2c(C(=O)NCCCO/N=C/C(=O)NCCCC[C@@H]3NC(=O)CNC(=O)[C@@H]4CCCN4C(=O)[C@H](CCCCN)NC(=O)[C@@H]4CCCN4C(=O)[C@H](CCCCN)NC(=O)CNC(=O)[C@@H]4CCCN4C(=O)[C@H](CCCCN)NC(=O)[C@@H]4CCCN4C3=O)cccc12` (stereo partly specified) (cyclo(GKPKPGK(X1)PKP)) gave an IC50 [3] of 2000 nM.
With `COc1ccc2nc3cc(Cl)ccc3c(NCCCNCCCNCCn3cnc4c(N)ncnc43)c2c1` the K (Calf thymus DNA) was 10000 to 1e+06 M⁻¹.
Work on `COc1ccc2c(NCCCNCCCNCCn3cnc4c(N)nc(N)nc43)c3cc(Cl)ccc3nc2c1` yielded a K (Calf thymus DNA) of 10000 to 1e+06 M⁻¹.
